# Experimental data as given in US6525001B1, “Substituted pyrimidine and pyridine herbicides” (Mid-American Commercialization Corporation, priority 1997, dated 2003).
# How the values were obtained:
# Type in all cases: in vivo
# [1] = system: lambsquarters (Chenopodium album); assay: Test C; set-up: key: 0 was no effect; 100 was complete control; details: PREEMERGENCE
# [2] = system: purple nutsedge (Cyperus rotundus); assay: Test C; set-up: key: 0 was no effect; 100 was complete control; details: PREEMERGENCE
# [3] = system: blackgrass (Alopecurus myosuroides); assay: Test B pre-/postemergence; set-up: key: 0 is no effect; 10 is complete control; details: for Blackgrass plant response rating: Preemergence
# Summary of the method: (§1)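 Scored visually 0 (none) to 10 (complete control) against untreated plants after twelve to sixteen greenhouse days. Test chemicals, formulated in surfactant-containing non-phytotoxic solvent, applied to soil after planting and, separately, onto 1- to 4-leaf (2–18 cm) plants.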
# [4] = system: purple nutsedge (Cyperus rotundus); assay: Test B pre-/postemergence; set-up: key: 0 is no effect; 10 is complete control
# Summary of the method: as §1
# soybean (Glycine max) = assay: Test B pre-/postemergence; set-up: key: 0 is no effect; 10 is complete control
# Summary of the method: as §1
# [5] = system: crabgrass (Digitaria sanguinalis); assay: Test B pre-/postemergence; set-up: key: 0 is no effect; 10 is complete control; details: for Crabgrass plant response rating: Preemergence
# Summary of the method: as §1
# wild oat (Avena fatua) = assay: Test B pre-/postemergence; set-up: key: 0 is no effect; 10 is complete control
# Summary of the method: as §1
# [6] = system: common groundsel (Senecio vulgaris); assay: Test E pre-/postemergence/post directed; set-up: key: 0 is no effect; 100 is complete control; details: PREEMERGENCE
# From the text: (§2) Seeds, tubers, or plant parts of alexandergrass (Brachiaria plantaginea), annual bluegrass (Poa annua), arrowleaf sida (Sida rhombifolia), barnyardgrass (Echinochloa crus-galli), bermudagrass (Cynodon dactylon), citrus (Citrus sinensis), common chickweed (Stellaria media), common purslane (Portulaca oleracea), common ragweed (Ambrosia elatior), common groundsel (Senecio vulgaris), dallisgrass (Paspalum dilatatum), goosegrass (Eleusine indica), green foxtail (Setaria viridis), guineagrass (Panicum maximum), itchgrass (Rottboellia exaltata), johnson grass (Sorghum halepense), kochia (Kochia scoparia), large crabgrass (Digitaria sanguinalis), leafy spurge (Euphorbia esula), pitted morningglory (Ipomoea lacunosa), purple nutsedge (Cyperus rotundus), quackgrass (Agropyron repens), Russian thistle (Salsola kali), sandbur (Cenchrus echinatus), sourgrass (Trichachne insularis), Spanishneedles (Bidens bipinnata), sugarcane (Saccharum officinarum), surinam grass (Brachiaria decumbens) and tall mallow (Malva sylvestris) were planted into greenhouse pots of flats containing greenhouse planting medium. Plant species were grown grown in separate pots or individual compartments. Preemergence applications were made within one day of planting the seed or plant part. Postemergence applications were applied when the plants were in the two to four leaf stage (three to twenty cm).
# (§3) Test chemicals were formulated in a non-phytotoxic solvent mixture which included a surfactant and applied preemergence to the soil surface, postemergence to the plants or as a post directed spray to plants and soil at the base of the target species. Untreated control plants and treated plants were placed in the greenhouse and visually evaluated for injury 13 to 21 days after herbicide application. Plant response ratings, summarized in Table E, are based on a 0 to 100 scale where 0 is no injury and 100 is complete control. A dash (−) response means no test result.
# [7] = system: dallisgrass (Paspalum dilatatum); assay: Test E pre-/postemergence/post directed; set-up: key: 0 is no effect; 100 is complete control; details: PREEMERGENCE
# From the text: as §2, §3
# [8] = system: sourgrass (Trichachne insularis); assay: Test E pre-/postemergence/post directed; set-up: key: 0 is no effect; 100 is complete control; details: PREEMERGENCE
# From the text: as §2, §3
# [9] = system: guineagrass (Panicum maximum); assay: Test E pre-/postemergence/post directed; set-up: key: 0 is no effect; 100 is complete control; details: PREEMERGENCE
# From the text: as §2, §3
# [10] = system: tall mallow (Malva sylvestris); assay: Test E pre-/postemergence/post directed; set-up: key: 0 is no effect; 100 is complete control; details: PREEMERGENCE
# From the text: as §2, §3
# [11] = Rate 250 g/ha, Postemergence (so in the source)
smiles,measurement,setting,value
Cc1cnc(-n2ccc(C(F)(F)F)n2)nc1Cc1cccc(OC(F)(F)F)c1 [Compound 42],"Plant response rating, Lambsquarters",[1]; Rate 35 g/ha,85
same,"Plant response rating, Lambsquarters",[1]; Rate 70 g/ha,100
same,"Plant response rating, Lambsquarters",[1]; Rate 140 g/ha,100
same,"Plant response rating, Purple nutsedge",[2]; Rate 35 g/ha,0
same,"Plant response rating, Purple nutsedge",[2]; Rate 70 g/ha,0
same,"Plant response rating, Purple nutsedge",[2]; Rate 140 g/ha,0
same,"Plant response rating, Blackgrass","[3]; Rate 62 g/ha, Postemergence",6
same,Blackgrass plant response rating,[3]; Rate 62 g/ha,6
same,"Plant response rating, Blackgrass","[3]; Rate 125 g/ha, Postemergence",7
same,Blackgrass plant response rating,[3]; Rate 125 g/ha,10
same,"Plant response rating, Blackgrass","[3]; Rate 250 g/ha, Postemergence",7
same,"Plant response rating, Blackgrass",[3]; [11],10
same,"Plant response rating, Nutsedge","[4]; Rate 62 g/ha, Postemergence",0
same,Nutsedge plant response rating,"[4]; Rate 62 g/ha, Preemergence",0
same,Nutsedge plant response rating,"[4]; Rate 125 g/ha, Postemergence",0
same,"Plant response rating, Nutsedge","[4]; Rate 250 g/ha, Postemergence",2
same,"Plant response rating, Nutsedge",[4]; [11],0
same,"Plant response rating, Soybean","soybean (Glycine max); Rate 62 g/ha, Postemergence",9
same,Soybean plant response rating,"soybean (Glycine max); Rate 62 g/ha, Preemergence",2
same,Soybean plant response rating,"soybean (Glycine max); Rate 125 g/ha, Postemergence",9
same,"Plant response rating, Soybean","soybean (Glycine max); Rate 125 g/ha, Preemergence",4
same,"Plant response rating, Soybean","soybean (Glycine max); Rate 250 g/ha, Postemergence",9
same,"Plant response rating, Soybean",soybean (Glycine max); [11],4
same,"Plant response rating, Crabgrass","[5]; Rate 62 g/ha, Postemergence",4
same,Crabgrass plant response rating,[5]; Rate 62 g/ha,9
same,"Plant response rating, Crabgrass","[5]; Rate 125 g/ha, Postemergence",7
same,Crabgrass plant response rating,[5]; Rate 125 g/ha,10
same,"Plant response rating, Crabgrass","[5]; Rate 250 g/ha, Postemergence",8
same,"Plant response rating, Crabgrass",[5]; [11],10
same,Wild oats plant response rating,"wild oat (Avena fatua); Rate 62 g/ha, Postemergence",6
same,Wild oats plant response rating,"wild oat (Avena fatua); Rate 62 g/ha, Preemergence",4
same,Wild oats plant response rating,"wild oat (Avena fatua); Rate 125 g/ha, Postemergence",6
same,"Plant response rating, Wild oats","wild oat (Avena fatua); Rate 125 g/ha, Preemergence",8
same,"Plant response rating, Wild oats","wild oat (Avena fatua); Rate 250 g/ha, Postemergence",6
same,"Plant response rating, Wild oats",wild oat (Avena fatua); [11],9
same,"Plant response rating, Com. groundsel",[6]; Rate 64 g/ha,100
same,"Plant response rating, Com. groundsel",[6]; Rate 125 g/ha,100
same,"Plant response rating, Com. groundsel",[6]; Rate 250 g/ha,100
same,"Plant response rating, Dallisgrass",[7]; Rate 32 g/ha,70
same,"Plant response rating, Dallisgrass",[7]; Rate 64 g/ha,95
same,"Plant response rating, Dallisgrass",[7]; Rate 125 g/ha,100
same,"Plant response rating, Dallisgrass",[7]; Rate 250 g/ha,100
same,"Plant response rating, Sourgrass",[8]; Rate 32 g/ha,100
same,"Plant response rating, Sourgrass",[8]; Rate 64 g/ha,100
same,"Plant response rating, Sourgrass",[8]; Rate 125 g/ha,100
same,"Plant response rating, Sourgrass",[8]; Rate 250 g/ha,100
same,"Plant response rating, Guineagrass",[9]; Rate 32 g/ha,95
same,"Plant response rating, Guineagrass",[9]; Rate 64 g/ha,95
same,"Plant response rating, Guineagrass",[9]; Rate 125 g/ha,100
same,"Plant response rating, Guineagrass",[9]; Rate 250 g/ha,100
same,"Plant response rating, Tall Mallow",[10]; Rate 32 g/ha,98
same,"Plant response rating, Tall Mallow",[10]; Rate 64 g/ha,98
same,"Plant response rating, Tall Mallow",[10]; Rate 125 g/ha,98
same,"Plant response rating, Tall Mallow",[10]; Rate 250 g/ha,100
CCc1cnc(-n2ccc(C(F)(F)F)n2)nc1Cc1cccc(C(F)(F)F)c1 [Compound 46],"Plant response rating, Lambsquarters",[1]; Rate 35 g/ha,60
same,"Plant response rating, Lambsquarters",[1]; Rate 70 g/ha,100
same,"Plant response rating, Lambsquarters",[1]; Rate 140 g/ha,100
same,"Plant response rating, Blackgrass","[3]; Rate 62 g/ha, Postemergence",4
same,Blackgrass plant response rating,[3]; Rate 62 g/ha,8
same,"Plant response rating, Blackgrass","[3]; Rate 125 g/ha, Postemergence",5
same,Blackgrass plant response rating,[3]; Rate 125 g/ha,8
same,"Plant response rating, Blackgrass","[3]; Rate 250 g/ha, Postemergence",6
same,"Plant response rating, Blackgrass",[3]; [11],10
same,"Plant response rating, Nutsedge","[4]; Rate 62 g/ha, Postemergence",2
same,Nutsedge plant response rating,"[4]; Rate 125 g/ha, Preemergence",0
same,"Plant response rating, Nutsedge",[4]; [11],0
same,"Plant response rating, Soybean","soybean (Glycine max); Rate 62 g/ha, Postemergence",8
same,Soybean plant response rating,"soybean (Glycine max); Rate 62 g/ha, Preemergence",1
same,Soybean plant response rating,"soybean (Glycine max); Rate 125 g/ha, Postemergence",8
same,"Plant response rating, Soybean","soybean (Glycine max); Rate 125 g/ha, Preemergence",3
same,"Plant response rating, Soybean","soybean (Glycine max); Rate 250 g/ha, Postemergence",9
same,"Plant response rating, Soybean",soybean (Glycine max); [11],7
same,"Plant response rating, Crabgrass","[5]; Rate 62 g/ha, Postemergence",6
same,Crabgrass plant response rating,[5]; Rate 62 g/ha,9
same,"Plant response rating, Crabgrass","[5]; Rate 125 g/ha, Postemergence",6
same,Crabgrass plant response rating,[5]; Rate 125 g/ha,9
same,"Plant response rating, Crabgrass","[5]; Rate 250 g/ha, Postemergence",8
same,"Plant response rating, Crabgrass",[5]; [11],10
same,Wild oats plant response rating,"wild oat (Avena fatua); Rate 62 g/ha, Postemergence",3
same,Wild oats plant response rating,"wild oat (Avena fatua); Rate 62 g/ha, Preemergence",6
same,Wild oats plant response rating,"wild oat (Avena fatua); Rate 125 g/ha, Postemergence",4
same,"Plant response rating, Wild oats","wild oat (Avena fatua); Rate 125 g/ha, Preemergence",8
same,"Plant response rating, Wild oats","wild oat (Avena fatua); Rate 250 g/ha, Postemergence",4
same,"Plant response rating, Wild oats",wild oat (Avena fatua); [11],9
same,"Plant response rating, Com. groundsel",[6]; Rate 32 g/ha,100
same,"Plant response rating, Com. groundsel",[6]; Rate 64 g/ha,100
same,"Plant response rating, Com. groundsel",[6]; Rate 125 g/ha,100
same,"Plant response rating, Com. groundsel",[6]; Rate 250 g/ha,100
same,"Plant response rating, Dallisgrass",[7]; Rate 32 g/ha,65
same,"Plant response rating, Dallisgrass",[7]; Rate 64 g/ha,98
same,"Plant response rating, Dallisgrass",[7]; Rate 125 g/ha,100
same,"Plant response rating, Dallisgrass",[7]; Rate 250 g/ha,100
same,"Plant response rating, Sourgrass",[8]; Rate 32 g/ha,98
same,"Plant response rating, Sourgrass",[8]; Rate 64 g/ha,100
same,"Plant response rating, Sourgrass",[8]; Rate 125 g/ha,100
same,"Plant response rating, Sourgrass",[8]; Rate 250 g/ha,100
same,"Plant response rating, Guineagrass",[9]; Rate 32 g/ha,60
same,"Plant response rating, Guineagrass",[9]; Rate 64 g/ha,85
same,"Plant response rating, Guineagrass",[9]; Rate 125 g/ha,100
same,"Plant response rating, Guineagrass",[9]; Rate 250 g/ha,98
same,"Plant response rating, Tall Mallow",[10]; Rate 32 g/ha,100
same,"Plant response rating, Tall Mallow",[10]; Rate 64 g/ha,100
same,"Plant response rating, Tall Mallow",[10]; Rate 125 g/ha,100
same,"Plant response rating, Tall Mallow",[10]; Rate 250 g/ha,100
